Test results reported in patent publication US20150071918A1, “PEPTIDES FOR THE TREATMENT OF CANCER” (H. LEE MOFFITT CANCER CENTER AND RESEARCH INSTITUTE, INC., priority 2012, published 2015).
Where a SMILES comes first, the peptide text is derived from it. [ ]: non-standard residue; d: D form. The star is where a group is joined. Biotin = O=C1N[C@H]2[C@H](CS[C@H]2CCCCC(=O)*)N1

Key:
[1] = target: T1, full length recombinant human CD44 (Homo sapiens, UniProt P16070); experiment: ELISA based binding assay, biotin-HYD1 on NeutrAvidin coated wells; details: biotin as control
T1 construct: purchased Abnova
Excerpt: FIG. 41. […] A primary CD44 antibody and HRP conjugated secondary antibody and chemiluminescence detection was used to quantify rCD44 binding to immobilized biotin-HYD1.
FIG. 51. ELISA based binding assay confirms that biotin-HYD1 binds to full length recombinant human CD44 in a concentration dependent manner. Biotin was bound to NeutrAvidin coated wells to control for non-specific binding.
The inventors used biotin-HYD1 as bait to pulldown binding complexes contained within membrane extracts of H929 MM cells. The pull down assay was directly coupled with an unbiased Mass-Spec analysis to identify HYD1 binding partners. […] NeutrAvidin beads were used to reduce non-specific binding. […] The inventors next determined whether α4 integrin could be detected by western blot analysis. […] To determine whether […] was indeed a direct binding partner of […] the inventors used recombinant CD44 and an ELISA as a readout of binding. […]
The inventors performed a total membrane binding assay with biotin conjugated HYD1 and NeutrAvidin beads on NCI-H929 and U266 MM cells. Samples were then loaded on an SDS-PAGE gel, trypsin digested, and analyzed by Liquid Chromatography-Mass Spectrometry/Mass Spectrometry (LC-MS/MS). […] For more quantitative binding affinity analysis we produced the human globular ectodomain of CD44 comprising of amino acids 20-178. […]

[2] = test system: CD44 and α4 integrin in membrane extracts; experiment: Pull-down of membrane extract with biotin-conjugated peptide on NeutrAvidin beads, western blot / LC-MS/MS; type: binding; details: H929 cells, 30 μg membrane extract, western blot pan-CD44 antibody
Procedure: FIG. 39. […] Thirty micrograms of membrane extract was incubated with either biotin or biotin-HYD1 bound NeutrAvidin beads. The first lane is 30 μg of membrane extract only. CD44 was detected by western blot analysis using a pan-CD44 antibody.
FIGS. 40A-40B. […] Biotin-HYD1 or biotin was immobilized to NeutraAvidin beads prior to incubation with 150 μg of membrane extract. The blot was initially probed for α4 integrin and subsequently stripped and re-probed with CD44 antibody.
FIG. 65. […] Total cell membranes were isolated from U937 or HL-60 cells. Membrane lysate (150 μg) was incubated with 500 μg of biotin or biotin-MTI-101 bound to NeutrAvidin beads. […]
The inventors used biotin-HYD1 as bait to pulldown binding complexes contained within membrane extracts of H929 MM cells. […] The inventors next determined whether α4 integrin could be detected by western blot analysis. […] To determine whether […] was indeed a direct binding partner of […] the inventors used recombinant CD44 and an ELISA as a readout of binding. […]
We performed a total membrane binding assay with biotin conjugated HYD1 and NeutrAvidin beads on NCI-H929 and U266 MM cells. Samples were then loaded on an SDS-PAGE gel and analyzed by LC-MS/MS. The adhesion receptor CD44 was determined to be among the adhesion receptors that had the most peptide match hits and was confirmed as a valid hit via Western Blot analysis. […]

H929 myeloma cells = type: cell-based, human; details: H929 cells
Procedure: H929 cells were treated for 24 hours with varying concentrations of peptide. Cell death was measured by Topro-3 staining and FACS analysis. The IC50 values were obtained from linear regression analysis and an average value was obtained from 3 independent experiments.
Table 4 legend: Structure activity relationship in H929 myeloma cells of cyclic INTEGRIN INTERACTION INHIBITORS derivatives. The minimal bioactive core sequence of INTEGRIN INTERACTION INHIBITORS WSVVM (SEQ ID NO:33) was cyclized using 2 novel reduced amide bond beta turn promoters and KLKLK (SEQ ID NO:34) as the non-recognition sequence. H929 cells were treated with varying concentrations of the indicated peptide for 24 h. Cell viability was determined using Topro-3 staining and FACS analysis after drug treatment. IC50 values were generated from linear regressions generated from the dose response curves (n=mean of 3 independent experiments).
A colony forming assay was used to compare induced cell death in H929 multiple myeloma cells. Cells were treated with integrin interaction inhibitors, shown in FIG. 5 and Table 4, and cell death was measured following 24 hour peptide treatment by TOPRO-3 staining and FACS analysis.

T1 sequence (P16070 21-699 isoform P16070-4 limits assumed): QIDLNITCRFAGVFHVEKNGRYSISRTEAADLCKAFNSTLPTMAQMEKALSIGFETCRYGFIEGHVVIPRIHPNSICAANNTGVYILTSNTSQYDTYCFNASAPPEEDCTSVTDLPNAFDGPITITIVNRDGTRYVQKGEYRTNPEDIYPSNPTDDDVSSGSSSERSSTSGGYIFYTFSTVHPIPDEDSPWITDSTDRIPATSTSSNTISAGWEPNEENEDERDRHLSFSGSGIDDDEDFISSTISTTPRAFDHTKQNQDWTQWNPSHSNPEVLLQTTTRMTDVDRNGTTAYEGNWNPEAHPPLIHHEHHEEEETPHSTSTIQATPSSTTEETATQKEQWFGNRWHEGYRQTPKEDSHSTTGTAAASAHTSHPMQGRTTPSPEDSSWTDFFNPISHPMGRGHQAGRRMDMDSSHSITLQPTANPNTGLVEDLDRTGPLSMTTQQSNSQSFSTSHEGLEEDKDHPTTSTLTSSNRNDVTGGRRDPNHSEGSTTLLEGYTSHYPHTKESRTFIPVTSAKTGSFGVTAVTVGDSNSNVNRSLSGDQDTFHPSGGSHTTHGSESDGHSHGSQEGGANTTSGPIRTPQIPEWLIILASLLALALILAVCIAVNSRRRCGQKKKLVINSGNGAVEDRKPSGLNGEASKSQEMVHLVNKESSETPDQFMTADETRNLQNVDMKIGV

binding to recombinant CD44 in ELISA [1]: binds recombinant CD44 in a direct ELISA | IC50 of biotinylated peptide relative to HYD1 (H929 myeloma cells): slightly decreased
SMILES: CC[C@@H](C)[C@@H](NC(=O)[C@@H](CCCCN)NC(=O)CCCC[C@@H]1SC[C@@H]2NC(=O)N[C@@H]21)C(=O)N[C@H](CCCCN)C(=O)N[C@H](CCSC)C(=O)N[C@@H](C(=O)N[C@@H](C(=O)N[C@H](CO)C(=O)N[C@H](Cc1c[nH]c2ccccc12)C(=O)N[C@H](CCCCN)C(=O)NCC(=O)O)[C@H](C)CC)C(C)C [biotin-HYD1] (Biotin-[dK][dI][dK][dM][dV][dI][dS][dW][dK]G-OH; N-terminus and C-terminus assumed)
binding to recombinant CD44 in ELISA ([1]; listed as biotin conjugated HYD1): CD44 bound to biotin conjugated HYD1 in a concentration dependent manner | pull-down of binding partners from H929 membrane extract [2]: interacts with CD44 in H929 cells
